Experimental data reported in ChEMBL document CHEMBL5257109, “Development of actein derivatives as potent anti-triple negative breast cancer agents” (Bioorg Med Chem Lett, 2023).
Activity calls are given as the source filed them. The rule behind the calls is not given here.

Assays:
HCC1806 [1] = experiment: Antiproliferative activity against human HCC1806 cells assessed as inhibition of cell growth incubated for 36 hrs by SRB assay; format: functional, cell-based; conditions: for IC50: HCC1806, 36 h
MDA-MB-231 [2] = experiment: Antiproliferative activity against human MDA-MB-231 cells assessed as inhibition of cell growth incubated for 36 hrs by SRB assay; format: functional, cell-based; conditions: for IC50: MDA-MB-231, 36 h
HCC1806 [3] = experiment: Antiproliferative activity against human HCC1806 cells assessed as inhibition of cell growth at 20 uM incubated for 36 hrs by SRB assay relative to control; format: functional
MDA-MB-231 [4] = experiment: Antiproliferative activity against human MDA-MB-231 cells assessed as inhibition of cell growth at 20 uM incubated for 36 hrs by SRB assay relative to control; format: functional

Row | Structure (SMILES) | IC50 (HCC1806 [1]) | IC50 (MDA-MB-231 [2]) | Activity (HCC1806 [1]) | Activity (MDA-MB-231 [2]) | inhibition at 20 µM (HCC1806 [3]) | inhibition at 20 µM (MDA-MB-231 [4])
1 | CC(=O)O[C@H]1O[C@]2(C[C@@H](C)[C@H]3[C@H](C[C@@]4(C)[C@@H]5CC[C@H]6C(C)(C)[C@@H](O[C@@H]7OC[C@@H](O)[C@H](O)[C@H]7O)CC[C@@]67C[C@@]57C[C@@H](OC(C)=O)[C@]34C)O2)[C@@H]2O[C@]12C | > 20 µM | > 20 µM |  |  |  | 
2 | CC(=O)O[C@@H]1[C@@H](OC(C)=O)[C@H](O[C@H]2CC[C@]34C[C@]35CC(=O)[C@]3(C)[C@H]6[C@H](C)C[C@]7(OC(=O)[C@@]8(C)O[C@@H]78)O[C@H]6C[C@@]3(C)[C@@H]5CC[C@H]4C2(C)C)OC[C@H]1OC(C)=O |  |  | inactive | inactive |  | 
3 | C[C@@H]1C[C@]2(OC(O)[C@@]3(C)O[C@@H]23)O[C@H]2C[C@@]3(C)[C@@H]4CC[C@H]5C(C)(C)[C@@H](O[C@@H]6OC[C@@H](O)[C@H](O)[C@H]6O)CC[C@@]56C[C@@]46CC(=O)[C@]3(C)[C@@H]12 (some centres undefined) | > 20 µM | > 20 µM |  |  |  | 
4 | CC(=O)OC1O[C@]2(C[C@@H](C)[C@H]3[C@H](C[C@@]4(C)[C@@H]5CC[C@H]6C(C)(C)[C@@H](O[C@@H]7OC[C@@H](OC(C)=O)[C@H](OC(C)=O)[C@H]7OC(C)=O)CC[C@@]67C[C@@]57C[C@@H](OC(C)=O)[C@]34C)O2)[C@@H]2O[C@]12C (some centres undefined) | 8.21 µM | > 20 µM |  |  | > 50% | > 50%
5 | C[C@@H]1C[C@]2(OC(=O)[C@@]3(C)O[C@@H]23)O[C@H]2C[C@@]3(C)[C@@H]4CC[C@H]5C(C)(C)[C@@H](O[C@@H]6OC[C@@H](O)[C@H](O)[C@H]6O)CC[C@@]56C[C@@]46C[C@H](F)[C@]3(C)[C@@H]12 | > 20 µM | > 20 µM |  |  |  | 
6 | CC(=O)O[C@@H]1[C@@H](OC(C)=O)[C@H](O[C@H]2CC[C@]34C[C@]35CC(=O)[C@]3(C)[C@H]6[C@H](C)C[C@]7(OC(OC(=O)c8ccccc8F)[C@@]8(C)O[C@@H]78)O[C@H]6C[C@@]3(C)[C@@H]5CC[C@H]4C2(C)C)OC[C@H]1OC(C)=O (some centres undefined) |  |  | inactive | inactive |  | 
7 | CC(=O)O[C@@H]1[C@@H](OC(C)=O)[C@H](O[C@H]2CC[C@]34C[C@]35C=C[C@]3(C)[C@H]6[C@H](C)C[C@]7(OC(=O)[C@@]8(C)O[C@@H]78)O[C@H]6C[C@@]3(C)[C@@H]5CC[C@H]4C2(C)C)OC[C@H]1OC(C)=O | 13.6 µM | > 20 µM |  |  | > 50% | > 50%
8 | CC(=O)O[C@@H]1O[C@]2(C[C@@H](C)[C@H]3[C@H](C[C@@]4(C)[C@@H]5CC[C@H]6C(C)(C)[C@@H](O[C@@H]7OC[C@@H](O)[C@H](O)[C@H]7O)CC[C@@]67C[C@@]57C[C@@H](OC(C)=O)[C@]34C)O2)[C@@H]2O[C@]12C | > 20 µM | > 20 µM |  |  |  | 
9 | CC(=O)O[C@@H]1[C@@H](OC(C)=O)[C@H](O[C@H]2CC[C@]34C[C@]35C[C@@H](OC(C)=O)[C@]3(C)[C@H]6[C@H](C)C[C@]7(O[C@H](OC(=O)c8ccccc8)[C@@]8(C)O[C@@H]78)O[C@H]6C[C@@]3(C)[C@@H]5CC[C@H]4C2(C)C)OC[C@H]1OC(C)=O | > 20 µM | > 20 µM |  |  |  | 
10 | CC(=O)O[C@@H]1[C@@H](OC(C)=O)[C@H](O[C@H]2CC[C@]34C[C@]35C[C@@H](OC(C)=O)[C@]3(C)[C@H]6[C@H](C)C[C@]7(OC(O)[C@@]8(C)O[C@@H]78)O[C@H]6C[C@@]3(C)[C@@H]5CC[C@H]4C2(C)C)OC[C@H]1OC(C)=O (some centres undefined) | 3.42 µM | > 20 µM |  |  | > 50% | > 50%
11 | CC(=O)O[C@@H]1[C@@H](OC(C)=O)[C@H](O[C@H]2CC[C@]34C[C@]35CC(=O)[C@]3(C)[C@H]6[C@H](C)C[C@]7(O[C@@H](OC(=O)CCC(=O)O)[C@@]8(C)O[C@@H]78)O[C@H]6C[C@@]3(C)[C@@H]5CC[C@H]4C2(C)C)OC[C@H]1OC(C)=O | 10.7 µM | 12.1 µM |  |  | > 50% | > 50%
12 | CO[C@H]1O[C@]2(C[C@@H](C)[C@H]3[C@H](C[C@@]4(C)[C@@H]5CC[C@H]6C(C)(C)[C@@H](O[C@@H]7OC[C@@H](OC(C)=O)[C@H](OC(C)=O)[C@H]7OC(C)=O)CC[C@@]67C[C@@]57C[C@@H](OC(C)=O)[C@]34C)O2)[C@@H]2O[C@]12C | > 20 µM | > 20 µM |  |  |  | 
13 | C[C@@H]1C[C@]2(OC(O)[C@@]3(C)O[C@@H]23)O[C@H]2C[C@@]3(C)[C@@H]4CC[C@H]5C(C)(C)[C@@H](O[C@@H]6OC[C@@H](O)[C@H](O)[C@H]6O)CC[C@@]56C[C@@]46C[C@@H](O)[C@]3(C)[C@@H]12 (some centres undefined) | > 20 µM | > 20 µM |  |  |  | 
14 | COc1ccc(C(=O)O[C@H]2O[C@]3(C[C@@H](C)[C@H]4[C@H](C[C@@]5(C)[C@@H]6CC[C@H]7C(C)(C)[C@@H](O[C@@H]8OC[C@@H](OC(C)=O)[C@H](OC(C)=O)[C@H]8OC(C)=O)CC[C@@]78C[C@@]68C[C@@H](OC(C)=O)[C@]45C)O3)[C@@H]3O[C@]23C)cc1 | > 20 µM | > 20 µM |  |  |  | 
15 | COC1O[C@]2(C[C@@H](C)[C@H]3[C@H](C[C@@]4(C)[C@@H]5CC[C@H]6C(C)(C)[C@@H](O[C@@H]7OC[C@@H](O)[C@H](O)[C@H]7O)CC[C@@]67C[C@@]57C[C@@H](OC(C)=O)[C@]34C)O2)[C@@H]2O[C@]12C (some centres undefined) | > 20 µM | > 20 µM |  |  |  | 
16 | CC(=O)O[C@@H]1[C@@H](OC(C)=O)[C@H](O[C@H]2CC[C@]34C[C@]35C[C@@H](OC(C)=O)[C@]3(C)[C@H]6[C@H](C)C[C@]7(O[C@H](OC(=O)c8ccc([N+](=O)[O-])cc8)[C@@]8(C)O[C@@H]78)O[C@H]6C[C@@]3(C)[C@@H]5CC[C@H]4C2(C)C)OC[C@H]1OC(C)=O | > 20 µM | > 20 µM |  |  |  | 
17 | C[C@@H]1C[C@]2(OC(=O)[C@@]3(C)O[C@@H]23)O[C@H]2C[C@@]3(C)[C@@H]4CC[C@H]5C(C)(C)[C@@H](O[C@@H]6OC[C@@H](O)[C@H](O)[C@H]6O)CC[C@@]56C[C@@]46C=C[C@]3(C)[C@@H]12 | > 20 µM | > 20 µM |  |  |  | 
18 | CO[C@@H]1O[C@]2(C[C@@H](C)[C@H]3[C@H](C[C@@]4(C)[C@@H]5CC[C@H]6C(C)(C)[C@@H](O[C@@H]7OC[C@@H](OC(C)=O)[C@H](OC(C)=O)[C@H]7OC(C)=O)CC[C@@]67C[C@@]57C[C@@H](OC(C)=O)[C@]34C)O2)[C@@H]2O[C@]12C | > 20 µM | > 20 µM |  |  |  | 
19 | CC(=O)O[C@@H]1C[C@@]23C[C@@]24CC[C@H](O[C@@H]2OC[C@@H](O)[C@H](O)[C@H]2O)C(C)(C)[C@@H]4CC[C@H]3[C@]2(C)C[C@@H]3O[C@]4(C[C@@H](C)[C@@H]3[C@@]12C)OC(=O)[C@@]1(C)O[C@@H]41 | > 20 µM | > 20 µM |  |  |  | 
20 | CC(=O)OC1O[C@]2(C[C@@H](C)[C@H]3[C@H](C[C@@]4(C)[C@@H]5CC[C@H]6C(C)(C)[C@@H](O[C@@H]7OC[C@@H](OC(C)=O)[C@H](OC(C)=O)[C@H]7OC(C)=O)CC[C@@]67C[C@@]57CC(=O)[C@]34C)O2)[C@@H]2O[C@]12C (some centres undefined) |  |  | inactive | inactive |  | 
21 | CC(=O)O[C@@H]1[C@@H](OC(C)=O)[C@H](O[C@H]2CC[C@]34C[C@]35C[C@@H](OC(C)=O)[C@]3(C)[C@H]6[C@H](C)C[C@]7(O[C@H](OC(=O)/C=C/c8ccc(OC(F)(F)F)cc8)[C@@]8(C)O[C@@H]78)O[C@H]6C[C@@]3(C)[C@@H]5CC[C@H]4C2(C)C)OC[C@H]1OC(C)=O | > 20 µM | > 20 µM |  |  |  | 
22 | CC(=O)O[C@@H]1[C@@H](OC(C)=O)[C@H](O[C@H]2CC[C@]34C[C@]35C[C@@H](OC(C)=O)[C@]3(C)[C@H]6[C@H](C)C[C@]7(O[C@H](OC(=O)c8ccccc8F)[C@@]8(C)O[C@@H]78)O[C@H]6C[C@@]3(C)[C@@H]5CC[C@H]4C2(C)C)OC[C@H]1OC(C)=O | > 20 µM | > 20 µM |  |  |  | 
23 | CC(=O)O[C@@H]1[C@@H](OC(C)=O)[C@H](O[C@H]2CC[C@]34C[C@]35C[C@@H](OC(C)=O)[C@]3(C)[C@H]6[C@H](C)C[C@]7(OC(=O)[C@@]8(C)O[C@@H]78)O[C@H]6C[C@@]3(C)[C@@H]5CC[C@H]4C2(C)C)OC[C@H]1OC(C)=O | > 20 µM | > 20 µM |  |  |  | 
24 | CC(=O)O[C@@H]1[C@@H](OC(C)=O)[C@H](O[C@H]2CC[C@]34C[C@]35CC(=O)[C@]3(C)[C@H]6[C@H](C)C[C@]7(OC(OC(=O)c8ccccc8)[C@@]8(C)O[C@@H]78)O[C@H]6C[C@@]3(C)[C@@H]5CC[C@H]4C2(C)C)OC[C@H]1OC(C)=O (some centres undefined) |  |  | inactive | inactive |  | 
25 | CC(=O)O[C@@H]1[C@@H](OC(C)=O)[C@H](O[C@H]2CC[C@]34C[C@]35CC(=O)[C@]3(C)[C@H]6[C@H](C)C[C@]7(OC(O)[C@@]8(C)O[C@@H]78)O[C@H]6C[C@@]3(C)[C@@H]5CC[C@H]4C2(C)C)OC[C@H]1OC(C)=O (some centres undefined) | 8.8 µM | 13 µM |  |  | > 50% | > 50%
26 | CC(=O)O[C@@H]1[C@@H](OC(C)=O)[C@H](O[C@H]2CC[C@]34C[C@]35C[C@H](F)[C@]3(C)[C@H]6[C@H](C)C[C@]7(OC(=O)[C@@]8(C)O[C@@H]78)O[C@H]6C[C@@]3(C)[C@@H]5CC[C@H]4C2(C)C)OC[C@H]1OC(C)=O | > 20 µM | > 20 µM |  |  |  | 
27 | CC(=O)O[C@@H]1C[C@@]23C[C@@]24CC[C@H](O[C@@H]2OC[C@@H](O)[C@H](O)[C@H]2O)C(C)(C)[C@@H]4CC[C@H]3[C@]2(C)C[C@@H]3O[C@]4(C[C@@H](C)[C@@H]3[C@@]12C)O[C@@H](OC(=O)CCC(=O)O)[C@@]1(C)O[C@@H]41 | > 20 µM | > 20 µM |  |  |  | 
